Activity calls are given as the source filed them. The calls are words filed in the database; no cut-off is given here.
How the values were obtained:
[1] = target: cAMP and cAMP-inhibited cGMP 3',5'-cyclic phosphodiesterase 10A (Homo sapiens, UniProt Q9Y233); test: SPA with human PDE10A
[2] = target: Cyclin-dependent kinase 2/cyclin A (Homo sapiens) (UniProt P24941+P20248+P78396); test: cyclin-dependent kinase 2 / clyclinA Millipore kinase panel; assay type: protein-complex assay; conditions: Compound concentration 10.0 uM
[3] = target: Death-associated protein kinase 2 (Homo sapiens) (UniProt Q9UIK4); test: death-associated protein kinase 2 Millipore kinase panel; conditions: Compound concentration 10.0 uM
Chain of Death-associated protein kinase 2 (Homo sapiens) (Q9UIK4 whole entry, looked up): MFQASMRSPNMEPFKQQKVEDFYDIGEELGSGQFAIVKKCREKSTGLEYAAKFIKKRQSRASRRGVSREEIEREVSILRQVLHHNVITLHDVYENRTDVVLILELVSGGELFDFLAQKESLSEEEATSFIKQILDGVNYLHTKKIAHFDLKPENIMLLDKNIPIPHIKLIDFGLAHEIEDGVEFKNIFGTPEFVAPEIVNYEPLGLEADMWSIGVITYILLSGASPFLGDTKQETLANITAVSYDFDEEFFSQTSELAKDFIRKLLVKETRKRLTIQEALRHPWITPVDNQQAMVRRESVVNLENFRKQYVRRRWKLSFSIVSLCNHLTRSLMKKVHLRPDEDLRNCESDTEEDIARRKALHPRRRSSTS

[4] = target: Fibroblast growth factor receptor 4 (Homo sapiens) (UniProt P22455); test: fibroblast growth factor receptor 4 Millipore kinase panel; conditions: Compound concentration 10.0 uM
[5] = target: Interleukin-1 receptor-associated kinase 4 (Homo sapiens) (UniProt Q9NWZ3); test: interleukin-1 receptor-associated kinase 4 Millipore kinase panel; conditions: Compound concentration 10.0 uM
[6] = target: Mitogen-activated protein kinase 8 (Homo sapiens) (UniProt P45983); test: mitogen-activated protein kinase 8 Millipore kinase panel; conditions: Compound concentration 10.0 uM
[7] = target: Serine/threonine-protein kinase PAK 5 (Homo sapiens) (UniProt Q9P286); test: p21 protein -activated kinase 5 Millipore kinase panel; conditions: Compound concentration 10.0 uM
[8] = target: Serine/threonine-protein kinase PAK 6 (Homo sapiens) (UniProt Q9NQU5); test: p21 protein -activated kinase 6 Millipore kinase panel; conditions: Compound concentration 10.0 uM
[9] = target: Serine/threonine-protein kinase PLK2 (Homo sapiens) (UniProt Q9NYY3); test: polo-like kinase 2 Millipore kinase panel; conditions: Compound concentration 10.0 uM
[10] = target: cAMP-dependent protein kinase catalytic subunit PRKX (Homo sapiens) (UniProt P51817); test: protein kinase, X-linked Millipore kinase panel; conditions: Compound concentration 10.0 uM
[11] = target: Ribosomal protein S6 kinase alpha-4 (Homo sapiens) (UniProt O75676); test: ribosomal protein S6 kinase, 90kDa, polypeptide 4 Millipore kinase panel; conditions: Compound concentration 10.0 uM
Chain of Ribosomal protein S6 kinase alpha-4 (Homo sapiens) (O75676 whole entry, looked up): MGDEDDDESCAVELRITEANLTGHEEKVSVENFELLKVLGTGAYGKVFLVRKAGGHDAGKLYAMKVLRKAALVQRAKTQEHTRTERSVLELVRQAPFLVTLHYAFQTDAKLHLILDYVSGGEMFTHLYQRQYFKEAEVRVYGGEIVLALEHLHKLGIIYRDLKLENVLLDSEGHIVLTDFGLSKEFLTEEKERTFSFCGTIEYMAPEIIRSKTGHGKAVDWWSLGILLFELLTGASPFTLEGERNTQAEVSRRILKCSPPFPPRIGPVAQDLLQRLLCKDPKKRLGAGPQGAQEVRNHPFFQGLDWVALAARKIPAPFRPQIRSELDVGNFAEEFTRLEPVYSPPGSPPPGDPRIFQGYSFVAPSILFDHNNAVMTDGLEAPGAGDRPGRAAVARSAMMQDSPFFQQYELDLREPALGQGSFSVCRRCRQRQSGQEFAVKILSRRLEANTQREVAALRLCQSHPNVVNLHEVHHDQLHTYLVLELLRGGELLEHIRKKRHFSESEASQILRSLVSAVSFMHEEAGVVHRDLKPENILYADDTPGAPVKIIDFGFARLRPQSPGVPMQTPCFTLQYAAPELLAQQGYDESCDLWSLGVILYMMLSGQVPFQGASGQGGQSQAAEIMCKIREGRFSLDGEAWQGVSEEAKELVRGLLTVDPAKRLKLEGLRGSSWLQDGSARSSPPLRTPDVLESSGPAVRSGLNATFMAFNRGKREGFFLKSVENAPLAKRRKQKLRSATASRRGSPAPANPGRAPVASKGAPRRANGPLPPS

[12] = target: Ribosomal protein S6 kinase alpha-5 (Homo sapiens) (UniProt O75582); test: ribosomal protein S6 kinase, 90kDa, polypeptide 5 Millipore kinase panel; conditions: Compound concentration 10.0 uM
[13] = target: Serine/threonine-protein kinase Sgk1 (Homo sapiens) (UniProt O00141); test: serum/glucocorticoid regulated kinase 1 Millipore kinase panel; conditions: Compound concentration 10.0 uM
Chain of Serine/threonine-protein kinase Sgk1 (Homo sapiens) (O00141 whole entry): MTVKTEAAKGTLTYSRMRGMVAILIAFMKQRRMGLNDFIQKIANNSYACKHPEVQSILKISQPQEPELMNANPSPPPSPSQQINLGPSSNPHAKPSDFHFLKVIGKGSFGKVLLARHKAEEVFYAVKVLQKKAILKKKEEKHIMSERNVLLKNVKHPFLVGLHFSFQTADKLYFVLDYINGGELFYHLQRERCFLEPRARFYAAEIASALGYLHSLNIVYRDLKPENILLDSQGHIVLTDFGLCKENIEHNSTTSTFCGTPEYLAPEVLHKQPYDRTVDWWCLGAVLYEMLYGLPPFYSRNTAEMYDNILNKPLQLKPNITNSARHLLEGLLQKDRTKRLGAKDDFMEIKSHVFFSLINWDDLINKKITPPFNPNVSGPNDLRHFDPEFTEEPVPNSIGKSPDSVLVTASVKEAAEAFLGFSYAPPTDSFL

[14] = target: Serine/threonine-protein kinase TAO3 (Homo sapiens) (UniProt Q9H2K8); test: TAO kinase 3 Millipore kinase panel; conditions: Compound concentration 10.0 uM
Chain of Serine/threonine-protein kinase TAO3 (Homo sapiens) (Q9H2K8 whole entry): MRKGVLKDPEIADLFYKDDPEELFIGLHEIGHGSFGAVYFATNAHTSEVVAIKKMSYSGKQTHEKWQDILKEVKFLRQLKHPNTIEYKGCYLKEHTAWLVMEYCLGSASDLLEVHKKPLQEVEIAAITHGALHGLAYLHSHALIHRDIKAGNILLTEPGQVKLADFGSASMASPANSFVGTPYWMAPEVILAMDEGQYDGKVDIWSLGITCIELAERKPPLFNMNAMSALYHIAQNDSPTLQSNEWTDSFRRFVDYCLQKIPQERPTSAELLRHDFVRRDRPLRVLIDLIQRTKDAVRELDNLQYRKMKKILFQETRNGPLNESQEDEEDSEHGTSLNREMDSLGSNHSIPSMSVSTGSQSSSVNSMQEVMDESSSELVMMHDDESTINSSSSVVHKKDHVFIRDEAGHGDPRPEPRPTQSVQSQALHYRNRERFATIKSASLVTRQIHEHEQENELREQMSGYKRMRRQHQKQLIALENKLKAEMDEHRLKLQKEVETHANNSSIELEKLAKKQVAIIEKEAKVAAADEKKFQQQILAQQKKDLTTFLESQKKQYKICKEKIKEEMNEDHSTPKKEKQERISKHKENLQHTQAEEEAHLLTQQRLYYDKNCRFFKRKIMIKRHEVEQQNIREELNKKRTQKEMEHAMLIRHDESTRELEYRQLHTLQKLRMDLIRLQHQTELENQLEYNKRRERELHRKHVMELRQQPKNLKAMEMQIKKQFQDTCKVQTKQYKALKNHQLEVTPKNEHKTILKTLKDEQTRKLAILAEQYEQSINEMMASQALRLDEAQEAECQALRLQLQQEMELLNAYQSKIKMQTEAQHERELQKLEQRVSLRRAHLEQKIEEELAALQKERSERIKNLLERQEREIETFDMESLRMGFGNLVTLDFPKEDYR

[15] = target: Tyrosine-protein kinase ABL2 (Homo sapiens) (UniProt P42684); test: v-abl Abelson murine leukemia viral oncogene homolog 2 Millipore kinase panel; conditions: Compound concentration 10.0 uM
Chain of Tyrosine-protein kinase ABL2 (Homo sapiens) (P42684 whole entry): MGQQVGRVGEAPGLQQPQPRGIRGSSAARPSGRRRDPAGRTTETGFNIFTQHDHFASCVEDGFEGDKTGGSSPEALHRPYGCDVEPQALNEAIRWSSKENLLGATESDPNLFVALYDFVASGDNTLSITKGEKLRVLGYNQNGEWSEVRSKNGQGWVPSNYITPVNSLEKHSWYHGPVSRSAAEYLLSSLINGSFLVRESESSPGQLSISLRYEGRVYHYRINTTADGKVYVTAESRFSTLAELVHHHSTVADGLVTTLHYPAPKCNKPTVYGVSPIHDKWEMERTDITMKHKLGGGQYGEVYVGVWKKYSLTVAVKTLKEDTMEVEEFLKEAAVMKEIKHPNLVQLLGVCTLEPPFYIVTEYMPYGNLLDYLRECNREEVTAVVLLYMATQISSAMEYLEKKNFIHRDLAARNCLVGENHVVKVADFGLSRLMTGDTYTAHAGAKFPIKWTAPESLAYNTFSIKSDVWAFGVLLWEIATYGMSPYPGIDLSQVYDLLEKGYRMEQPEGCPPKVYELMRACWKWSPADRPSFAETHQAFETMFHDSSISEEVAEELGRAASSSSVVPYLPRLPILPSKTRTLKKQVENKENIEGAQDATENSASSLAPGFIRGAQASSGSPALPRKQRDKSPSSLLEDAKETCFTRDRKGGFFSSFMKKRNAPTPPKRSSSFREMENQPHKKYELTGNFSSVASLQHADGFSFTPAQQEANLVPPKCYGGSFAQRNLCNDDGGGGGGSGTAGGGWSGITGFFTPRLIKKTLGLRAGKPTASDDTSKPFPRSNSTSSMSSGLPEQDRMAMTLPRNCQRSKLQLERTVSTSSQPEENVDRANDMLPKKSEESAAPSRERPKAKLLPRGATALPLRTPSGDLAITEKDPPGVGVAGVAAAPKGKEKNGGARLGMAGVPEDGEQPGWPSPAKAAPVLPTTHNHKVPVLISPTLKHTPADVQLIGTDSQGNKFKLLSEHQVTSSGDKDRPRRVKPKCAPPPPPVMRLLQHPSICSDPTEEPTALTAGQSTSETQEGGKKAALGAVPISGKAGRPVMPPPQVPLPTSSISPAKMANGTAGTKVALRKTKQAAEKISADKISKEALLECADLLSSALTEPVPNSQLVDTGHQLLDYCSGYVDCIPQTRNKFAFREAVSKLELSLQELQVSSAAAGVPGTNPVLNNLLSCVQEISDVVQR

[16] = target: 5-hydroxytryptamine receptor 2A (Homo sapiens) (UniProt P28223); test: h5HT2A Cerep panel; conditions: Compound concentration 10.0 uM
Chain of 5-hydroxytryptamine receptor 2A (Homo sapiens) (P28223 whole entry): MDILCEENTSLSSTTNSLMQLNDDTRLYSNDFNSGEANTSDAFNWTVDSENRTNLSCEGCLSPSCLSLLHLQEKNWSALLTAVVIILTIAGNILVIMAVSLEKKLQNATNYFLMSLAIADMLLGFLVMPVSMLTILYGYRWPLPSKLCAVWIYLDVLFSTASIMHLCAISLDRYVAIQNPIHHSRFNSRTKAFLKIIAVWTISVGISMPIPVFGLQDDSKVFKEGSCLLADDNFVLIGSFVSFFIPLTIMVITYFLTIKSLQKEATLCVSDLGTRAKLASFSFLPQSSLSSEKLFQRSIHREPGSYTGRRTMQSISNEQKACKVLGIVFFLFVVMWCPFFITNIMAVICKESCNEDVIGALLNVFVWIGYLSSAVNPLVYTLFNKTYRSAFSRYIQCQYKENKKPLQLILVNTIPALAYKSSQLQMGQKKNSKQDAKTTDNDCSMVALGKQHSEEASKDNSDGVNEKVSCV

[17] = target: Type-1 angiotensin II receptor (Homo sapiens) (UniProt P30556); test: hAT1 Cerep panel; conditions: Compound concentration 10.0 uM
Chain of Type-1 angiotensin II receptor (Homo sapiens) (P30556 whole entry): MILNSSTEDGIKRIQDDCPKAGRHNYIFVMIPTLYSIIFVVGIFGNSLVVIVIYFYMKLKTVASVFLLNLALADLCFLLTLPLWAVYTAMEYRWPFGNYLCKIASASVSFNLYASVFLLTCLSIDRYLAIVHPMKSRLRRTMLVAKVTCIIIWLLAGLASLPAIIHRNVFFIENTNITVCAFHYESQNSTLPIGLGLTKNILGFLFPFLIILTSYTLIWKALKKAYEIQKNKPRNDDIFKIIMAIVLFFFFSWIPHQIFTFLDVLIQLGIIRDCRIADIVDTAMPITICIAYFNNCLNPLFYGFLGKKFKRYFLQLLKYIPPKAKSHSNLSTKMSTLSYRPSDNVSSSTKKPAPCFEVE

[18] = target: C-X-C chemokine receptor type 2 (Homo sapiens) (UniProt P25025); test: hBCXCR2 Cerep panel; conditions: Compound concentration 10.0 uM
Chain of C-X-C chemokine receptor type 2 (Homo sapiens) (P25025 whole entry): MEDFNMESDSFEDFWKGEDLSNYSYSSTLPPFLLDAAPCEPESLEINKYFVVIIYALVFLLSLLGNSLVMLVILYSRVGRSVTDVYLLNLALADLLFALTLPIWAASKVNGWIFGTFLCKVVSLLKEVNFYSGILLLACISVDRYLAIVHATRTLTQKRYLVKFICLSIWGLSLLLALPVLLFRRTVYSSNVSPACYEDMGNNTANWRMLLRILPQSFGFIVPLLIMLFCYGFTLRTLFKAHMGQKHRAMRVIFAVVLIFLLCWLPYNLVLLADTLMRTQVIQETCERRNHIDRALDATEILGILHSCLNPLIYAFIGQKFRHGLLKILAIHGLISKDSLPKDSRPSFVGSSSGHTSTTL

[19] = target: Cannabinoid receptor 1 (Homo sapiens) (UniProt P21554); test: hCB1 Cerep panel; conditions: Compound concentration 10.0 uM
[20] = target: Neuropeptide Y receptor type 2 (Homo sapiens) (UniProt P49146); test: hNPY2 Cerep panel; conditions: Compound concentration 10.0 uM
[21] = target: Alpha-1A adrenergic receptor (Rattus norvegicus) (UniProt P43140); test: rAa1 Cerep panel; conditions: Compound concentration 10.0 uM
[22] = target: T1, Alpha-2B adrenergic receptor (Homo sapiens) (UniProt P18089); test: hAb2 Cerep panel; conditions: Compound concentration 10.0 uM
T1 sequence (whole entry): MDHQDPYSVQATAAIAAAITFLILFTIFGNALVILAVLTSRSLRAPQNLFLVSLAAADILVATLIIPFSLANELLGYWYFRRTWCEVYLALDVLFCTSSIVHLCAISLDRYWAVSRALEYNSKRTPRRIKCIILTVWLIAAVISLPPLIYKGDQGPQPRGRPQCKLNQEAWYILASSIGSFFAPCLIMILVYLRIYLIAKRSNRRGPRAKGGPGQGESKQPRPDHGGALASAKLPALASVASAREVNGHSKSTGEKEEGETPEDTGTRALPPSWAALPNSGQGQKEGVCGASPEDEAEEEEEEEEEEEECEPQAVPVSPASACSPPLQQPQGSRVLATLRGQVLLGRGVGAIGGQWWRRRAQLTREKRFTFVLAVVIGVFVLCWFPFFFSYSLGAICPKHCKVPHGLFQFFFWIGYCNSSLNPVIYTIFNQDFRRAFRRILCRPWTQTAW

[23] = target: Glutamate receptor ionotropic, AMPA (Rattus norvegicus) (UniProt P19491+P19492+P19493+P19490); test: rGlutamate (ionotropic) AMPA Cerep panel; assay type: protein-complex assay; conditions: Compound concentration 10.0 uM
Rattus norvegicus = species on record: Rattus norvegicus; test: rGlutamate (ionotropic) kanic acid Cerep panel; conditions: Compound concentration 10.0 uM
[24] = target: T2, Muscarinic acetylcholine receptor M1 (Homo sapiens) (UniProt P11229); test: hM1 Cerep panel; conditions: Compound concentration 10.0 uM
T2 sequence (whole entry): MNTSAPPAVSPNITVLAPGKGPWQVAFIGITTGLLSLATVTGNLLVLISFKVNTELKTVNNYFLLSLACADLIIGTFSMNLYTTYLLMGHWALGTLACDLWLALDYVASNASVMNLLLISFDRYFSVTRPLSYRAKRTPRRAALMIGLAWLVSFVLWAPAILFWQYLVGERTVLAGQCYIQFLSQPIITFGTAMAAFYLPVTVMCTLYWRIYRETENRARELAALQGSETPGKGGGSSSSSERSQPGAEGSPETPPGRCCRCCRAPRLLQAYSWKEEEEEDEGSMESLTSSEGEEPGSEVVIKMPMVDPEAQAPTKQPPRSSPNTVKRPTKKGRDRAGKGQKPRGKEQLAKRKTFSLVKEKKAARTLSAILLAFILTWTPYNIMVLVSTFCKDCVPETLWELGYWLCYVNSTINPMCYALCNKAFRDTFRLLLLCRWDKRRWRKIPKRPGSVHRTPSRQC

[25] = target: P2X receptor (Rattus norvegicus) (UniProt P51579+P49653+P51578+Q64663+P47824+P51577+P49654); test: rP2X Cerep panel; assay type: protein assay; conditions: Compound concentration 10.0 uM
[26] = target: Vasopressin V1a receptor (Homo sapiens) (UniProt P37288); test: hV1a Cerep panel; conditions: Compound concentration 10.0 uM
[27] = target: Histamine H2 receptor (Homo sapiens) (UniProt P25021); test: hH2 Cerep panel; conditions: Compound concentration 10.0 uM
[28] = target: Progesterone receptor (Homo sapiens) (UniProt P06401); test: hPR Cerep panel; conditions: Compound concentration 10.0 uM
[29] = target: Prostaglandin G/H synthase 2 (Homo sapiens) (UniProt P35354); test: hCOX2 Cerep panel; conditions: Compound concentration 10.0 uM

For `COCCc1ccc(-c2c(C)nc3c(N4CCOCC4)ccnn23)cn1` [JNJ-42396302], the Ki [1] was 13 nM (active), the inhibition [2] was 2% and the inhibition [3] was -1%. For the same compound, the inhibition [4] was -7%, the inhibition [5] was -1% and the inhibition [6] was -3%. For the same compound, the inhibition [7] was 7%, the inhibition [8] was 5% and the inhibition [9] was -7%. It also gave an inhibition [10] of 4%, an inhibition [11] of 2% and an inhibition [12] of 3%. For the same compound, the inhibition [13] was -3%, the inhibition [14] was 0% and the inhibition [15] was 6%. For the same compound, the effect [16] was 4.05%, the effect [17] was 14.4% and the effect [18] was 5.15%. For the same compound, the effect [19] was 4.05%, the effect [20] was 4.45% and the effect [21] was -2.55%. The effect [22] was -4.45%, the effect [23] was 7.7% and the effect (Rattus norvegicus) was -25.3%. For the same compound, the effect [24] was 2.2%, the effect [25] was 6.95% and the effect [26] was 8.9%. The effect [27] was 18.1%, the effect [28] was 13.5% and the effect [29] was 13.4%.

Reference: ChEMBL document CHEMBL4800727 (2021)
